# Patent US20250296967A1 (Ferring B.V., priority 2006, published 2025)
# Legend:
# B2A2-K-NS [1] = assay: Binding of B2A2-K-NS to commercially available bone replacement grafts (ELISA, difference method); assay type: physicochemical; conditions: BRGs in 0.9% saline
# Experimental: The next step was to determine whether the peptide was able to bind these BRGs. B2A2-K-NS (approximately 20 μg/ml) was incubated in one ml of 0.9% saline solution with 0.17 gram BRGs for 15 minutes. An ELISA assay was performed both on peptide solution without BRGs and the supernatant from the peptide+BRG. The difference between the peptide only reading and the supernatant from the peptide+BRG provided the amount of peptide bound.
# The binding definitions are defined as follows: None is no detectable binding. High is binding>20 μg peptide/cc graft material. Intermediate is less than 20 μg peptide/cc graft material, but above non-detectable binding.
# B2A2-K-NS [2] = assay: Release of B2A2-K-NS from peptide bound BRGs (ELISA); assay type: physicochemical; conditions: 0.9% saline
# Experimental: The third step was to measure the amount of peptide released using the same ELISA assay. Briefly, the peptide bound BRGs were placed in 1 ml of 0.9% saline and the amount of peptide released was measured over a 72 hours period.
# B2A2-K-NS [3] = assay: Binding of B2A2-K-NS to ceramic granules (BCA / micro BCA, subtraction method); assay type: physicochemical; conditions: high B2A2-K-NS coating concentrations, as described in Example 2
# Experimental: Methods. 1.5 cc of granules were added to 1.8 mL of 0.9% saline or of peptide solution in 0.9% saline having a concentration of 35.9, 119.8, 359.3 μg/ml. The granule-peptide solutions were swirled vigorously for 15 seconds every 5 minutes for 20 minutes. After swirling, the supernatant was removed, filtered through 0.22 μm filter (low protein binding durapore (PVDF)) and assayed via Bicinchoninic Acid (BCA) or micro BCA assay (Pierce, Rockport, IL) for peptide content. The amount of peptide bound to the particles was obtained by subtraction method (the total peptide minus peptide present in the supernatant is equal to the amount of peptide bound on particulate materials.). The study was performed on two separate days and the results averaged below: […]
# [4] = Release of B2A2-K-NS from ceramic granules (BCA, cumulative release, FIG. 1); assay type: physicochemical; conditions: first 4 hour period, 0.9% saline
# Experimental: Methods: After binding the peptide to the granules as described in Example 2, each of the vials containing particulate materials was replenished with 1.8 mL of 0.9% saline and placed on the rocking platform. After specified time interval, the supernatant was removed, filtered, and collected over a period of 43 hrs. Based on the amount of the peptide present in the supernatant, the amount of peptide bound to or released from the particles as was calculated. The study was performed on two separate days with the averages plotted showing cumulative peptide released vs. time (see graph in FIG. 1) (Note: the HA plus silicon was only performed at high dose). A BCA assay was utilized to determine peptide concentrations. The 60:40 granule was pH 8.8.
# Referring now to FIG. 1, the release characteristics of specified materials tested. There was a burst of peptide released over a 4 hour period (supernatant was assessed hourly for the first four hours). At high loading doses (431 μg peptide/cc granule), the burst phase accounted for 12-22% of the total amount of peptide loaded. For intermediate loading doses (144 μg peptide/cc granule), the burst phase accounted for 25-35% of the total amount loaded. For low doses (43 μg peptide/cc granule), the burst phase accounted for 48-59% of the total amount loaded. Following the burst period, there was a slower, sustained release period.
# The diamond on the graph represents 60% HAP and 40% TCP (high dose). The square represents 60% HAP and 40% TCP (medium dose). The triangle represents 20% HAP and 80% TCP (high dose). The X represents 20% HAP and 80% TCP (medium dose). The star represents 100% HAP plus Si (high dose). The filled-in circle represents 60% HAP and 40% TCP (low dose), and the plus sign represents 20% HAP and 80% TCP (low dose).
# [5] = tested on: mouse pluripotent cell lines C2C12; assay: Alkaline phosphatase assay of B2A2-K-NS released from 20:80 granules, with or without BMP-2; assay type: cell-based; conditions: peptide released from 20:80 granules, 1.25- to 10 μg/ml, BMP-2 100 ng/ml, C2C12 cells, 1 day
# Experimental: Methods: (A) Peptide was collected over a six hour period after release from 20:80 (as described in Example 3). The supernatants from all time points were mixed, frozen, and lyophilized for 48 hours. The peptide pellet was reconstituted in 1.5 ml saline and a BCA assay performed to determine peptide concentration.
# (B) Alkaline phosphatase assays were performed using mouse pluripotent cell lines C2C12. Cells were plated in 96-well (1×10^4/well) plates in DMEM/F-12 Ham's containing 15% FBS, 1% L-gln, 1% NaPyr, and 1% gentamycin and allowed 24 hours to attach at 37 C, 5% CO2, 90% humidity. […] After 1 day, ALP activity was determined.
# [6] = molecular target: T1, Type I, bovine-derived, dermal collagen sheets (Bos taurus, UniProt P02453+P02465); assay: Binding of B2A2-K-NS to collagen sheets; assay type: physicochemical; conditions: 1,072 μg B2A2-K-NS/ml collagen sheet in 0.9% saline
# T1 construct: Type I, bovine-derived, dermal collagen sheets; from tissue; host or cells: bovine dermis
# Experimental: Type I, bovine-derived, dermal collagen sheets that were crosslinked with DHT and lyophilized were incubated with 1,072 μg B2A2-K-NS/ml collagen sheet in 0.9% saline solution. The binding efficiency was 61%, which was far lower than the binding efficiency on the Ca^2+ containing granules at high B2A2-K-NS coating concentrations (87-95% as described in Example 2). Lower binding efficiencies may be attributed to lower surface area as compared to that of the granules.
# [7] = molecular target: T1, Type I, bovine-derived, dermal collagen sheets; assay: Release of B2A2-K-NS from collagen (BCA); assay type: physicochemical; conditions: 0.9% saline
# Experimental: To initiate release, a vial containing collagen coated with B2A2-K-NS was replenished with 2 ml of 0.9% saline and placed on the rocking platform. After specified time interval, the supernatant was removed, filtered, and collected. A BCA assay was utilized to determine peptide concentrations. […] The BSA standard curve was generated by placing BSA in supernatant from the collagen sponge (without peptide).
# ectopic bone = assay: Ectopic bone induction by B2A2-K-NS coated granules with exogenous recombinant BMP-2, subcutaneous implant in rats; assay type: in vivo
# Experimental: Sterile ceramic granules (Berkeley Advanced Biomaterials, Inc.; 60:40 (HA:TCP)) where coated by immersing them for 30 minutes in a solution containing B2A2-K-NS (0-, 2.5-, 10-, 25 μg/ml). Thereafter, the solution was removed by aspiration and the granules allowed to air dry. The coated granules were then placed in sterile gelatin capsules. […] The capsules were placed subcutaneously in young adult rats on the flanks in pre-prepared pouches and the surgical site closed with surgical clips. After 30 days, the implants were surgically removed, weighed, and palpated to assess hardness. The explants were then fixed with multiple changes into 70% ethanol.
# [8] = Comparative release of synthetic growth factor analogues from a single scaffold (BCA, FIG. 5); assay type: physicochemical; conditions: 100 μg peptide/cc granule, 0.9% saline
# Experimental: Methods for assaying peptide release from a single scaffold are as follows: 1 cc of granules were added to 1.2 mL of 0.9% saline or of peptide solution in 0.9% saline having a concentration of 100 μg B2A2-K-NS, LA2, or F2A4/cc granule. The granule-peptide solutions were swirled vigorously for 15 seconds every 5 minutes for 20 minutes. After swirling, the supernatant was removed and assayed via BCA or micro BCA assay for peptide content. The BCA value for each peptide was corrected relative to the BSA standard curve.
# Referring now to FIG. 5, the shape of the release curve is similar for all three peptides (B2A2-K-NS (diamonds), LA2 (squares), and F2A4-K-NS (triangles)). However, the magnitude of the release is markedly different.
# T1 sequence (P02453 162-1217 limits assumed): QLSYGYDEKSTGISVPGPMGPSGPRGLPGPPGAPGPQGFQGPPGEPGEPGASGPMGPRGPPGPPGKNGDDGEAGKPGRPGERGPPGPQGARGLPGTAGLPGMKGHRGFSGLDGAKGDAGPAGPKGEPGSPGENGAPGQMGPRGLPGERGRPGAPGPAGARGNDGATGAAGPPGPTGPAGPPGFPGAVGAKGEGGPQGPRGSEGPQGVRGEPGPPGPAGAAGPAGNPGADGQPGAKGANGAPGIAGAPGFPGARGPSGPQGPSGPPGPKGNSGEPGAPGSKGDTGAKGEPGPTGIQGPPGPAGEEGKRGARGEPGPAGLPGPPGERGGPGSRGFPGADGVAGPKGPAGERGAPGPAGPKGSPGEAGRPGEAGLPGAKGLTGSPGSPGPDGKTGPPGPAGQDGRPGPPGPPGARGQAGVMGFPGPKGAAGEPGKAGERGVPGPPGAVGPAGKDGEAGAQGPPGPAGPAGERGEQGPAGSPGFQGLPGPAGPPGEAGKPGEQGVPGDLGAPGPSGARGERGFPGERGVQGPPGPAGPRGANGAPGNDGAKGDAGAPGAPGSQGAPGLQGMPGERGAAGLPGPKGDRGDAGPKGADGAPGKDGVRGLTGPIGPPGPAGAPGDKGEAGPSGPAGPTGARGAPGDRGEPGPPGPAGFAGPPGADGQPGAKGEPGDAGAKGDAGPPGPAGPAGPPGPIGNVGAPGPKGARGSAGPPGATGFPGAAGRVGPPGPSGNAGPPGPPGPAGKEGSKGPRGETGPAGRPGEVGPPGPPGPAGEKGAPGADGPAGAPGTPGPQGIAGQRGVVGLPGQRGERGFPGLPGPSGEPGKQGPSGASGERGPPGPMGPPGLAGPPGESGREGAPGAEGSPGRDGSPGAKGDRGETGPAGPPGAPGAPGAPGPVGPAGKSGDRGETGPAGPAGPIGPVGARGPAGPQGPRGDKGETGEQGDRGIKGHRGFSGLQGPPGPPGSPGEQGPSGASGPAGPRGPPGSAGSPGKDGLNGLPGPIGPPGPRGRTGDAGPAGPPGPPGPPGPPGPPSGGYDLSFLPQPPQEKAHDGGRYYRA
# T1 sequence (P02465 80-1117 limits assumed): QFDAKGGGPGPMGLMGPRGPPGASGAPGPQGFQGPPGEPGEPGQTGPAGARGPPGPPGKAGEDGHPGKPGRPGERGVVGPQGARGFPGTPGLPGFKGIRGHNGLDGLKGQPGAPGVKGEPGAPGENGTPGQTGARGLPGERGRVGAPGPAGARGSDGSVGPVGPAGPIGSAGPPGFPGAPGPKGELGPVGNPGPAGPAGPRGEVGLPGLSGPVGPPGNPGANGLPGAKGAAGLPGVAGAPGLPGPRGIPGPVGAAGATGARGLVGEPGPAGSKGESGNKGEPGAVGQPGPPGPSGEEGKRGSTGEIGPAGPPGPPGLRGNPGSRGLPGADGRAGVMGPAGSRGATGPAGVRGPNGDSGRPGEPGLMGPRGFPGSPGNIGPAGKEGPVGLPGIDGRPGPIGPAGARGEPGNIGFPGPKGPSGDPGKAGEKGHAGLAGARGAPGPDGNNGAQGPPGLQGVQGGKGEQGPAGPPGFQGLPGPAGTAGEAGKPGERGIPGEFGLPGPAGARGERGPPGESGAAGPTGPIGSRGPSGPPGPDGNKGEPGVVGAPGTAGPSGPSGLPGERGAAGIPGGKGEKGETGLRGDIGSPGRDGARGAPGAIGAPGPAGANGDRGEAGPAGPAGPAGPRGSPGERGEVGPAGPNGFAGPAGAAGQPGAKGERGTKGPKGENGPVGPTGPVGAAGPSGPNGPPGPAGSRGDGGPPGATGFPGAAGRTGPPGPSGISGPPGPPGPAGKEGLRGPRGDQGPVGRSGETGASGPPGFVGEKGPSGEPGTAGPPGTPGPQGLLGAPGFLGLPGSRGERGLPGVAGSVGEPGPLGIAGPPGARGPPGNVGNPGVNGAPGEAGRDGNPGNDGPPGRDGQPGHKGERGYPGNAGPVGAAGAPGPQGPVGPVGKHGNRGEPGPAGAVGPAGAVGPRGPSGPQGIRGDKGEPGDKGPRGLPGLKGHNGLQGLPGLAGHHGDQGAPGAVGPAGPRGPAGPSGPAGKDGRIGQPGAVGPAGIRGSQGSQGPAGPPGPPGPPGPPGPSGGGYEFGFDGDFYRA
Substance,pH range of BRGs to which the peptide was found to bind (B2A2-K-NS [1]),pH range of materials from which the peptide could release (B2A2-K-NS [2]),binding efficiency on the Ca2+ containing granules (B2A2-K-NS [3]),"burst phase release, share of the total amount of peptide loaded ([4]; high loading doses (431 μg peptide/cc granule))","burst phase release, share of the total amount loaded ([4]; intermediate loading doses (144 μg peptide/cc granule))","burst phase release, share of the total amount loaded ([4]; low doses (43 μg peptide/cc granule))",effect on BMP-2 activity (ALP activity) [5],binding efficiency [6],cumulative amount of peptide released ([7]; after 1 hour),cumulative amount of peptide released ([7]; after 2 hours),cumulative amount of peptide released ([7]; after 3 hours),cumulative amount of peptide released ([7]; after 4 hours),"implants judged palpably hardened (ectopic bone; coated with 2.5 μg B2A2-K-NS, 1 μg recombinant BMP-2, rats, 30 days)","implants judged palpably hardened (ectopic bone; coated with 10 μg B2A2-K-NS, 1 μg recombinant BMP-2, rats, 30 days)","implants judged palpably hardened (ectopic bone; coated with 25 ug B2A2-K-NS, 1 μg recombinant BMP-2, rats, 30 days)","implants with histologically identifiable new bone (ectopic bone; coated with 25 ug B2A2-K-NS, 1 μg recombinant BMP-2, rats, 30 days, hematoxylin and eosin)","explant weight versus controls (no BMP-2, no B2A2-K-NS) (ectopic bone; rats, subcutaneous, 60:40 (HA:TCP) granules coated with 25 μg B2A2-K-NS, 1 μg recombinant BMP-2, 30 days)","explant weight versus those containing BMP-2 but no B2A2-K-NS (ectopic bone; rats, subcutaneous, granules coated with 25 μg B2A2-K-NS, 1 μg recombinant BMP-2, 30 days)",release of peptide from the scaffold (relative magnitude) [8]
AISMLYLDENEKVVLKK(AISMLYLDENEKVVLK)HxHxHxRKRLDRIARNH2 [B2A2-K-NS],3.7-10.5,6.3-10,87-95%,12-22%,25-35%,48-59%,increased BMP-2 activity,61%,11%,19%,23%,28%,3/4,3/4,4/4,4/4,significantly higher weight,tended (p=0.11) to have a higher weight,–
YRSRKYSSWYVALKRK(H-YRSRKYSSWYVALKR)HxHxHxRKRLDRIAR-amide [F2A4],–,–,–,–,–,–,–,–,–,–,–,–,–,–,–,–,–,–,does not release readily
SIKVAVAAK(H-SIKVAVAA)xHxHxRKRKLERIAR-amide [LA2],–,–,–,–,–,–,–,–,–,–,–,–,–,–,–,–,–,–,most rapidly released
